Among the data in ChEMBL document CHEMBL4619734, “Molecule Property Analyses of Active Compounds for Mycobacterium tuberculosis” (J Med Chem, 2020) are MIC and MIC90 values, retold here.

Values after ≈ are worked out from the molar mass of the structure shown.

Assay type in all cases: functional
The subject of experiment [1] is Mycobacterium tuberculosis. In words: Antitubercular activity against Mycobacterium tuberculosis harboring mmpL3.
In experiment [2] the test system is Mycobacterium tuberculosis. In words: Antimycobacterial activity against multi drug-resistant Mycobacterium tuberculosis H37Rv.
Experiment [3] relates to Mycobacterium tuberculosis. Kind of experiment: Antimycobacterial activity against multi drug-resistant Mycobacterium tuberculosis.
In experiment [4] the test system is Mycobacterium tuberculosis. In words: Antimycobacterial activity against multi drug-resistant Mycobacterium tuberculosis expressing WecA.
Experiment [5] concerns Mycobacterium tuberculosis. Kind of experiment: Antimycobacterial activity against Mycobacterium tuberculosis drug resistant clinical isolates.

The molecule `Cc1c(CN2CCN(c3ccc(C(F)(F)F)cc3)CC2)cc(-c2ccccc2)n1NC(=O)c1ccncc1` had an MIC in experiment [1] of 0.025 to 0.12 µg/mL (≈ 0.0481 to 0.231 µM).

`Cc1c(CN2CCN(C)CC2)cc(-c2ccc(Cl)cc2)n1-c1ccc(Cl)cc1` gave an MIC in experiment [1] of 0.7 to 6.2 µg/mL (≈ 1.69 to 15 µM).

As to `Cc1cc2nc(CCc3cc(Cl)cc(Cl)c3)[nH]c2cc1C`, the MIC90 in experiment [2] was found to be 5 µM (≈ 1.6 µg/mL).

Take `CC/N=c1\cc2n(-c3ccc(C(F)(F)F)cc3)c3ccccc3nc-2cc1Nc1ccc(C(F)(F)F)cc1`: the MIC in experiment [3] is 0.25 µg/mL (≈ 0.475 µM).

On to `CCN(CC)C/N=c1\cc2n(-c3ccc(Cl)c(Cl)c3)c3ccccc3nc-2cc1Nc1ccc(Cl)c(Cl)c1`, for which the lowest concentration to inhibit growth in experiment [3] (MIC) was 0.12 µg/mL (≈ 0.205 µM).

Turning to `CCCCc1ccc(NC(=O)C2=CCN(C)C(C(O[C@@H]3O[C@H](CN)[C@@H](O)[C@H]3O)[C@H]3OC(n4ccc(=O)[nH]c4=O)[C@H](O)[C@@H]3O)C(=O)N2C)cc1` (stereo partly specified), the MIC in experiment [4] was 6.25 µg/mL (≈ 9.07 µM).

As for `Cc1c(CN2CCSCC2)cc(-c2ccc(F)cc2)n1-c1ccccc1`, it took 0.5 µg/mL (≈ 1.36 µM) to inhibit growth in experiment [1] (MIC).

Consider `CC(C)/N=c1\cc2n(-c3ccc(Cl)cc3)c3ccccc3nc-2cc1Nc1ccc(Cl)cc1` [CLOFAZIMINE], for which 1 µg/mL (≈ 2.11 µM) was the least that counted as inhibitory in experiment [3] (MIC).

In the case of `C[C@]1(COc2ccc(N3CCC(Oc4ccc(OC(F)(F)F)cc4)CC3)cc2)Cn2cc([N+](=O)[O-])nc2O1` [DELAMANID], in experiment [5], the MIC was 0.01 µg/mL (≈ 0.0187 µM).

In turn, `O=[N+]([O-])c1cn2c(n1)OC[C@@H](OCc1ccc(OC(F)(F)F)cc1)C2` [PRETOMANID] returned an MIC90 in experiment [5] of 0.531 µg/mL (≈ 1.48 µM).

For `CC(C)=CCC/C(C)=C/CNCCNC1C2CC3CC(C2)CC1C3` (stereo unspecified) [SQ109], in experiment [1], the minimal inhibitory concentration (MIC) was in the range of 0.16 to 0.64 µg/mL (≈ 0.484 to 1.94 µM).
